The EC50 is the concentration needed to bring the measured effect to its halfway point. Usually bioavailability stands for dose-corrected exposure relative to a reference, in per cent. By Tmax is commonly meant the time at which the peak concentration occurs. The NOAEL is the highest dose or exposure tested at which no adverse effect was seen.

Structures are written as SMILES. Active and inactive are the calls of the source. The calls are words filed in the database; no cut-off is given here. Some results are limits rather than exact numbers.

One data set deals with T1, Toll-like receptor 7 (Homo sapiens, UniProt Q9NYK1).
T1 sequence (Q9NYK1 whole entry): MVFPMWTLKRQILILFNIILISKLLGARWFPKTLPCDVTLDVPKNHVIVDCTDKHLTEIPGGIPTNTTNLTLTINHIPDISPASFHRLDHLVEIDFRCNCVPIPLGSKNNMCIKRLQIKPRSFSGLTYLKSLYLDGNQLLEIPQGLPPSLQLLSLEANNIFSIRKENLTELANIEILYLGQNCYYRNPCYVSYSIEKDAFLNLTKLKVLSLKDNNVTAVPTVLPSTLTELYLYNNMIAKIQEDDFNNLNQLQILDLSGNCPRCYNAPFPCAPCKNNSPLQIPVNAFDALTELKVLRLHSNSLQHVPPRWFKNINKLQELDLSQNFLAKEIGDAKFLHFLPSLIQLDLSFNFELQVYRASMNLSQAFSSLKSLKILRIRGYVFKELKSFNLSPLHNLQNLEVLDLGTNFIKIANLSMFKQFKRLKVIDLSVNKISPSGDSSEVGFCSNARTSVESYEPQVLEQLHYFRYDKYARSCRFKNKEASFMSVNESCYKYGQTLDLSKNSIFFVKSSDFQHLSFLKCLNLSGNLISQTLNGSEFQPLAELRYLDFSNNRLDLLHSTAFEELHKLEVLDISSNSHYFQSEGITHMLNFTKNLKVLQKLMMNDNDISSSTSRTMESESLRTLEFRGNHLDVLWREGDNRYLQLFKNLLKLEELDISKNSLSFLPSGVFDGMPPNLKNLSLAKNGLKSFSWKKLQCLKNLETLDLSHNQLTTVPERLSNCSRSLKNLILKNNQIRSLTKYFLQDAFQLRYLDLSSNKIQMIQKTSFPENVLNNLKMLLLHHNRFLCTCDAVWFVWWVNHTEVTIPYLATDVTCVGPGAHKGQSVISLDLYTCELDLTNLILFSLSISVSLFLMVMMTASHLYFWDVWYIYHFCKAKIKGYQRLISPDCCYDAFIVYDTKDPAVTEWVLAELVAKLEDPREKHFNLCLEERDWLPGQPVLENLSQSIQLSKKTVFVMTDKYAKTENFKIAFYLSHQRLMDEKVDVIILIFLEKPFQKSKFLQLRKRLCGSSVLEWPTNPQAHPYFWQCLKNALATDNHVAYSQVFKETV
Briefly: Agonist activity at TLR7 in human PBMC assessed as TNF-alpha production after 24 hrs by electrochemiluminescence assay. The data set is classed as cell-based.

In data set [1] the test system is PBMC. The data set can be described thus: Immunomodulatory activity in human PBMC assessed as reduction in timothy grass induced IL-13 level after 6 days. Conditions: dose 0.01-10000 nM, time 6.0 day. The class given is functional, cell-based.
Data set [2] relates to PBMC. Briefly: Immunomodulatory activity in human PBMC assessed as reduction in house dust mite induced IL-5 level after 6 days. The class given is functional, cell-based. To be noted: dose 0.01-10000 nM, time 6.0 day.
In data set [3] the test system is PBMC. Briefly: Immunomodulatory activity in human PBMC assessed as reduction in house dust mite induced IL-13 level after 6 days. The data set is classed as functional, cell-based. To be noted: dose 0.01-10000 nM, time 6.0 day.
For data set [4], the system named is Cynomolgus monkey. The data set can be described thus: Increase in IP-10 level in cynomolgus monkey serum at 30 ng/kg, administered intranasally after 6 hrs. Conditions: Macaca fascicularis. The data set is classed as functional, organism-based.
The target in data set [5] is T2, Toll-like receptor 7 (Macaca fascicularis) (UniProt B3Y652).
T2 sequence (whole entry): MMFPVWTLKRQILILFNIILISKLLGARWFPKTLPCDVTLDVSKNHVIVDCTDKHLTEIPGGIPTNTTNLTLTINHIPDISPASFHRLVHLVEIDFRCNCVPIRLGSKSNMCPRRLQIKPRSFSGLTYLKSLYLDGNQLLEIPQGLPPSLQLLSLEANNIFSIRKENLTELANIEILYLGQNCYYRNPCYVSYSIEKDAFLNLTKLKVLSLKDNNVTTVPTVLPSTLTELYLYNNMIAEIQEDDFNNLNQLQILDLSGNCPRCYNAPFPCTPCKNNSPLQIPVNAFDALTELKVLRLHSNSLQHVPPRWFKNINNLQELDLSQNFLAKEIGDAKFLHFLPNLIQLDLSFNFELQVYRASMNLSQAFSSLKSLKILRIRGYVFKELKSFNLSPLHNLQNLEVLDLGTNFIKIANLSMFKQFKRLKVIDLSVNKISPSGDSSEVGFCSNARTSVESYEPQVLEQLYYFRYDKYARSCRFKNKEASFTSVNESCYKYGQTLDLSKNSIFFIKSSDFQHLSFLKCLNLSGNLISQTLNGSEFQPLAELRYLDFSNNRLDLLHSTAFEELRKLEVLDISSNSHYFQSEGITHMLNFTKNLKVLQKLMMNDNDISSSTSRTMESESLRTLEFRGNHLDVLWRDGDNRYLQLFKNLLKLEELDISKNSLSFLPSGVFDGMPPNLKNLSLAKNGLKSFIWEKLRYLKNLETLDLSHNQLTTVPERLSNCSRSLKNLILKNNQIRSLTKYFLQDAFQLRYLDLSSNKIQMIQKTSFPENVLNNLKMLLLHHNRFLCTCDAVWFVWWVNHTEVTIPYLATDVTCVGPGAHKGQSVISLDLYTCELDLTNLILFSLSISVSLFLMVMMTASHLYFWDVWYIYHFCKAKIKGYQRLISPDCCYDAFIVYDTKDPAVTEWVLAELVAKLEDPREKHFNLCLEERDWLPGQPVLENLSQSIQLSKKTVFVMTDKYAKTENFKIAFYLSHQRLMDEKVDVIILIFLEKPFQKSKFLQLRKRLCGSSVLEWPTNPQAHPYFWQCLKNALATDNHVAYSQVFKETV
The data set can be described thus: In vivo target occupancy at TLR7 in cynomolgus monkey assessed as fold increase in OAS2 mRNA expression in nasal scrape at 3 ng/kg administered intranasally incubated for 24 hrs by TaqMan analysis (reference value: 1). The data set is classed as functional. On the technique in general: Quantitative PCR measures a nucleic acid by following its amplification.

Data set [6] addresses T2, Toll-like receptor 7 (Macaca fascicularis). Briefly: In vivo target occupancy at TLR7 in cynomolgus monkey assessed as fold increase in CXCL10 mRNA expression in nasal scrape at 30 ng/kg administered intranasally incubated for 24 hrs by TaqMan analysis (reference value: 1.6). The class given is functional.
Data set [7] has as its system Cynomolgus monkey. The data set can be described thus: Induction of plasma cytokines in cynomolgus monkey. The data set is classed as functional, organism-based. To be noted: Macaca fascicularis.
Data set [8] can be described thus: Bioavailability in rat after intranasal administration. The data set is classed as ADME, organism-based. To be noted: in vivo, inhaled or intranasal.
Data set [9] can be described thus: Tmax in rat after intranasal administration. The data set is classed as ADME. To be noted: in vivo, inhaled or intranasal.
A short description of data set [10]: Tmax in cynomolgus monkey after intranasal administration. Conditions: in vivo, inhaled or intranasal. The class given is ADME, Macaca fascicularis.
A short description of data set [11]: Toxicity in female rat assessed as NOAEL after 14 days. To be noted: in vivo, time 14 day.
Data set [12] in a line: Toxicity in male rat assessed as NOAEL after 8 weeks. Conditions: in vivo.
A short description of data set [13]: Toxicity in female rat assessed as NOAEL after 8 weeks. Conditions: in vivo.
Data set [14] can be described thus: Ocular toxicity in monkey assessed as aqueous cells and aqueous flare at 1000 ug/ml, post single dose administration after 6 hrs. Conditions: rhesus monkey, in vivo, dose 1000 µg/ml. Set-up: species or system Macaca mulatta.
For data set [15], the system named is PBMC. The data set can be described thus: Immunomodulatory activity in human PBMC assessed as IL-10 production in presence of allergen timothy grass. The data set is classed as functional, cell-based.
The subject of data set [16] is PBMC. Briefly: Immunomodulatory activity in human PBMC assessed as IL-10 production incubated for 6 days in presence of allergen house dust mite. The data set is classed as functional, cell-based. Conditions: time 6.0 day.
Data set [17] has as its system PBMC. The data set can be described thus: Immunomodulatory activity in human PBMC assessed as IFNalpha production incubated for 6 days in presence of allergen timothy grass. The data set is classed as functional, cell-based. To be noted: time 6.0 day.

`CCC[C@H](C)Oc1nc(N)c2[nH]c(=O)n(CCCCCN3CCCCC3)c2n1` [GSK-2245035]: the EC50 on Toll-like receptor 7 is 316 nM. Also, the Activity result is “Dose-Dependent Effect” in the data set on PBMC [1], “Dose-Dependent Effect” in the data set with PBMC [2], “Dose-Dependent Effect” with PBMC [3] and “Toxic” in data set [14]. Moreover, the outcome in the data set with Cynomolgus monkey [4], in the data set with PBMC [15], in the data set on PBMC [16] and in the data set with PBMC [17] was Active. Further, the figures for the fold change (FC) in [5] and in data set [6] were 128 and 638, respectively. Also, in the data set on Cynomolgus monkey [7], the result was inactive. In data set [8], this compound displayed a bioavailability of 12%. Also, the Tmax in [9] and in data set [10] was not above 5 min each time. Also, the NOAEL at 336 h in data set [11] is 0.772 mg/kg/day. Moreover, the NOAEL at 1344 h in data set [12] stood at 0.406 mg/kg; in data set [13], 0.698 mg/kg.

These data come from ChEMBL document CHEMBL5252515, “Discovery of 6-Amino-2-{[(1S)-1-methylbutyl]oxy}-9-[5-(1-piperidinyl)pentyl]-7,9-dihydro-8H-purin-8-one (GSK2245035), a Highly Potent and Selective Intranasal Toll-Like Receptor 7 Agonist for the Treatment of Asthma” (J Med Chem, 2016).
